# Test results published in ChEMBL document CHEMBL6078688, “Discovery of Novel MyD88 Inhibitor A5S to Alleviate Acute Lung Injury with Favorable Drug-like Properties” (J Med Chem, 2024).
# Calls of active or inactive are those of the source. No cut-off for these calls is given here.
# Experiments:
# [1] = target: TLR4-MyD88 (Mus musculus) (UniProt Q9QUK6+P22366); assay: Inhibition of MYD88/TLR4 protein-protein interaction in LPS-induced mouse J774.A1 cells at 20 uM incubated for 2 hrs by coimmunoprecipitation analysis; assay type: cell-based
# Sequence of TLR4-MyD88 (Mus musculus) (P22366 whole entry, looked up): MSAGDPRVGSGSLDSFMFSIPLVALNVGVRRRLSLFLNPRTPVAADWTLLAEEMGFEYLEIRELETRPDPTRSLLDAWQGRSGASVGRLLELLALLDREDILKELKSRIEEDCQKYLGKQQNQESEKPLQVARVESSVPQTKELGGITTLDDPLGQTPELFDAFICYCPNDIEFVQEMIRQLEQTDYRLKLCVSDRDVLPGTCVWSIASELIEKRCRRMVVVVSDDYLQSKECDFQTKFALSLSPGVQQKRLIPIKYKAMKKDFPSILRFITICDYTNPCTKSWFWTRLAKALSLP
# Sequence of TLR4-MyD88 (Mus musculus) (Q9QUK6 whole entry, looked up): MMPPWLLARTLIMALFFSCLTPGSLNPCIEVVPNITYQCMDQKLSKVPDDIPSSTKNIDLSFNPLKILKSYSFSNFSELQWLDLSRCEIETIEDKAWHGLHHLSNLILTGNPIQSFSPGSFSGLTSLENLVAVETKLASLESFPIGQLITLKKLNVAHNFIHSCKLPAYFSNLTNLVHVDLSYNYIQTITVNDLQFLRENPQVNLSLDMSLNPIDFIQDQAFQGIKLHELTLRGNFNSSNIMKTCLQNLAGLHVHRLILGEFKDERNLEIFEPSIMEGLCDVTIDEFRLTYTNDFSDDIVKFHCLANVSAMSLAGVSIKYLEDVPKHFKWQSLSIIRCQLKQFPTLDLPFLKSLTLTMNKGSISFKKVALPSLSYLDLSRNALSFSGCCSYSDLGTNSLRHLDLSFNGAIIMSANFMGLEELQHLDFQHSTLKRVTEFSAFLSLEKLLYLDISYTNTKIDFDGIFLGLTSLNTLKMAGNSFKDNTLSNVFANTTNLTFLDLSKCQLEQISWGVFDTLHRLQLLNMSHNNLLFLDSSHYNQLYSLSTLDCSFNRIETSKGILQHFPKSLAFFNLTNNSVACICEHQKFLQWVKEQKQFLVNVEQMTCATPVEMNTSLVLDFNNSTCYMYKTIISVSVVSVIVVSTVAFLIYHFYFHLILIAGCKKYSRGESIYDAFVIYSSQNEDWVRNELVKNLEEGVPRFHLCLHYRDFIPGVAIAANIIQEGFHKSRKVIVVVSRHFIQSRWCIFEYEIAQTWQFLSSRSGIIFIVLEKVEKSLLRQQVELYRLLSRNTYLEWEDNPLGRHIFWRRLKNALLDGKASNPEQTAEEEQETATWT
# [2] = Stability of compound in simulated intestinal fluid measured upto 12 hrs; assay type: physicochemical; details: simulated gi fluid
# Mus musculus [3] = assay: Antiinflammatory activity in cecal ligation and puncture induced sepsis C57BL/6 mouse model assessed as reduction in neutrophil infiltration in lung at 20 mg/kg,po administrated with compound for 6 hrs followed by CLP induction and measured after 12 hrs by immunohistochemical staining based analysis; assay type: functional, organism-based; details: time 18.0 hrs
# [4] = target: T1, Myeloid differentiation primary response protein MyD88 (Homo sapiens, UniProt Q99836); assay: Binding affinity to CM5 sensor chip immobilized human MyD88 DD domain assessed as dissociation constant by SPR analysis
# T1 sequence (Q99836 whole entry, the tested form may be a part): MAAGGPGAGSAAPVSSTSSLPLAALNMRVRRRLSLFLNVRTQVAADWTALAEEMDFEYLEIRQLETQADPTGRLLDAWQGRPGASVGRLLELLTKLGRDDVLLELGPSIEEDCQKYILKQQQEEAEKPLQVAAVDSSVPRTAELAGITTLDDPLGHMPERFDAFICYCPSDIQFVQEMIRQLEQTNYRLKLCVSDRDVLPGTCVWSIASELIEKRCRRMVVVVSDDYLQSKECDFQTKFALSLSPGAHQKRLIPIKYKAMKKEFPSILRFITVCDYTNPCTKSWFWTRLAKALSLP
# Mus musculus [5] = assay: Antiinflammatory activity in cecal ligation and puncture induced sepsis C57BL/6 mouse model assessed as reduction in IL-6 mRNA level in lung at 20 mg/kg,po administrated with compound for 6 hrs followed by CLP induction and measured after 12 hrs by RT-PCR analysis; assay type: functional, organism-based; details: time 18.0 hrs
# [6] = AUC (0 to t) in Sprague-Dawley rat at 20 mg/kg,po administration measured upto 24 hrs by LC-MS/MS analysis; assay type: ADME, organism-based; details: in vivo
# [7] = Stability of compound in rat serum measured upto 12 hrs; assay type: ADME, cell-free
# [8] = Acute toxicity in C57BL/6 mouse assessed as pathological change in heart at 500 mg/kg,po administration measured upto 11 days by hematoxylin and eosin staining based assay; assay type: organism-based; details: in vivo, 264 h, time < 11 day
# Mus musculus [9] = assay: Antiinflammatory activity against LPS induced acute lung injury C57BL/6 mouse model assessed as reduction in total cell count in BALF at 20 mg/kg,po administrated with compound for 30 mins followed by LPS treatment and measured after 6 hrs; assay type: functional, organism-based; details: time 6.5 hrs
# J774.A1 [10] = assay: Inhibition of NF-kappaB signalling pathway in LPS-induced mouse J774.A1 cells assessed as downregulation of p65 phosphorylation by Western blotting analysis; assay type: cell-based
# Peritoneal macrophage = assay: Antiinflammatory activity in LPS-induced mouse Peritoneal macrophage cells assessed as inhibition of IFN-beta mRNA level at 1.25 to 5 uM by RT-PCR analysis; assay type: functional, cell-based; details: dose 1.25-5 µM
# Mus musculus [11] = assay: Antiinflammatory activity in cecal ligation and puncture induced sepsis C57BL/6 mouse model assessed as reduction in interstitial edema in lung at 20 mg/kg,po administrated with compound for 6 hrs followed by CLP induction and measured after 12 hrs by H and E staining based analysis; assay type: functional, organism-based; details: time 18.0 hrs
# Mus musculus [12] = assay: Antiinflammatory activity in cecal ligation and puncture induced sepsis C57BL/6 mouse model assessed as reduction in pulmonary congestion in lung at 20 mg/kg,po administrated with compound for 6 hrs followed by CLP induction and measured after 12 hrs by H and E staining based analysis; assay type: functional, organism-based; details: time 18.0 hrs
# [13] = Half life in Sprague-Dawley rat at 20 mg/kg,po administration measured upto 24 hrs by LC-MS/MS analysis; assay type: ADME, organism-based; details: in vivo
# J774.A1 [14] = assay: Anti-inflammatory activity in LPS-induced mouse J774.A1 cells assessed as inhibition of TNF-alpha production by ELISA; assay type: functional, cell-based
# [15] = Stability of compound in simulated gastric fluid measured upto 12 hrs; assay type: physicochemical; details: simulated gi fluid
# Mus musculus [16] = assay: Antiinflammatory activity in cecal ligation and puncture induced sepsis C57BL/6 mouse model assessed as reduction in TNF-alpha level in serum at 20 mg/kg,po administrated with compound for 6 hrs followed by CLP induction and measured after 12 hrs by ELISA; assay type: functional, organism-based; details: time 18.0 hrs
# J774.A1 [17] = assay: Inhibition of NF-kappaB signalling pathway in LPS-induced mouse J774.A1 cells assessed as upregulation of IkappaB-alpha expression by Western blotting analysis; assay type: cell-based
# [18] = Drug concentration in Sprague-Dawley rat serum at 1 mg/kg,iv administration measured upto 24 hrs by LC-MS/MS analysis; assay type: ADME, organism-based; details: read-out: Ct
# [19] = target: T1, Myeloid differentiation primary response protein MyD88; assay: Binding affinity to CM5 sensor chip immobilized human MyD88 TIR domain assessed as dissociation constant by SPR analysis
# [20] = Acute toxicity in C57BL/6 mouse assessed as pathological change in lung at 500 mg/kg,po administration measured upto 11 days by hematoxylin and eosin staining based assay; assay type: organism-based; details: in vivo, 264 h, time < 11 day
# [21] = Drug concentration in Sprague-Dawley rat lung at 20 mg/kg,po administration measured upto 8 hrs by LC-MS/MS analysis; assay type: ADME, organism-based; details: in vivo
# J774.A1 [22] = assay: Cytotoxicity against mouse J774.A1 cells at 3 to 12 uM by MTT assay; assay type: toxicity, cell-based; details: j774.a1, 12 µM, dose 3-12 µM
# J774.A1 [23] = assay: Anti-inflammatory activity in LPS-induced mouse J774.A1 cells assessed as inhibition of IL-6 production by ELISA; assay type: functional, cell-based
# Mus musculus [24] = assay: Antiinflammatory activity in cecal ligation and puncture induced sepsis C57BL/6 mouse model assessed as reduction in cell effusion in BALF at 20 mg/kg,po administrated with compound for 6 hrs followed by CLP induction and measured after 12 hrs; assay type: functional, organism-based; details: time 18.0 hrs
structure (smiles),measurement,setting,value
O[C@H](COc1ccc(Br)cc1)CN1CCN(Cc2cc3ccccc3[nH]2)CC1,inhibition,[1],Active
same,Stability,[2],Stable
same,Activity,Mus musculus [3],Active
same,Activity,[4],inactive
same,Activity,Mus musculus [5],Active
same,AUC(0-t) at 24 h,[6],2860 ng·h/mL
same,Stability,[7],Stable
same,Activity,[8],Non-toxic
same,Activity,Mus musculus [9],Active
same,inhibition,J774.A1 [10],Active
same,Activity,Peritoneal macrophage,inactive
same,Activity,Mus musculus [11],Active
same,Activity,Mus musculus [12],Active
same,half-life,[13],4.44 h
same,IC50,J774.A1 [14],3.28 µM
same,Stability,[15],Stable
same,Activity,Mus musculus [16],Active
same,inhibition,J774.A1 [17],Active
same,concentration at 24 h,[18],1080 ng/mL
same,Kd,[19],15 µM
same,Activity,[20],Non-toxic
same,Drug uptake,[21],Active
same,Activity,J774.A1 [22],Non-toxic
same,IC50,J774.A1 [23],0.24 µM
same,Activity,Mus musculus [24],Active
